Read-outs that look alike come from different tables or passages of the source.
Tests used:
[1] = Plasma and urine pharmacokinetics, noncompartmental analysis; format: in vivo, human; conditions: for half-life / Tmax: human, plasma; for half-life: po; for Tmax: oral
Procedure: (§1) DLTs included: cycle 1 grade ≥3 hematologic and non-hematologic events or grade 2 non-hematologic events considered by the investigator to be TAK-931-related, grade 2 ejection fraction decrease, >2 weeks delay in initiating cycle 2 (1 week for schedules D and E), and >50% TAK-931 dose reduction in cycle 1 due to treatment-related adverse events (AEs; see Supplementary Materials and Methods for full DLT criteria). Toxicity was evaluated by NCI Common Terminology Criteria for Adverse Events (version 4.03). Tumor response was measured using the RECIST (version 1.1) ([16]). Serial blood samples for pharmacokinetic analysis were collected during cycle 1 on days 1 and 7 (schedule B), 1 and 8 (schedules A and D), or 1 and 9 (schedule E). Pharmacokinetic parameters were estimated from concentration–time profiles using noncompartmental methods with WinNonlin® Phoenix™ version 8.1 (Certara, Princeton, NJ). pMCM2 was detected semiquantitatively by IHC of histologic sections of formalin-fixed, paraffin-embedded skin and tumor biopsies using anti-pMCM2 (3378-1, Epitomics Inc.; ref. [15]). Quantitative image analysis determined pMCM2 levels as “histologic score nuclei (H-score).” Skin punch biopsies (2–4 mm) were obtained during screening or predose on cycle 1, day 1 and for patients in schedules A, B, and D, postdose on any drug dosing day after 3 consecutive dosing days in cycle 1. A postdose skin biopsy was obtained on day 9 in schedule E. Fresh tumor biopsy pairs were collected predose and postdose on any dosing day after the completion of 3 consecutive dosing days in cycle 1 from patients who received doses considered to have biological effect.
(§2) The safety population included patients who received ≥1 dose of TAK-931. The pharmacodynamic-evaluable population comprised patients from the safety population with a baseline and ≥1 additional postbaseline biopsy sample that was suitable for pMCM2 analysis. The pharmacokinetic-evaluable population included patients with sufficient dosing and TAK-931 concentration–time data to estimate pharmacokinetic parameters. The response-evaluable population included patients in the safety population with measurable disease at baseline and ≥1 postbaseline response assessment.

[2] = tested on: skin phosphorylated MCM2 (pMCM2; a CDC7 substrate); experiment: pMCM2 IHC (H-score) in skin punch biopsies; format: in vivo, human
Excerpt: The primary objectives were to evaluate safety, tolerability, and to identify the MTD of TAK-931. Secondary objectives were to characterize the pharmacokinetics of TAK-931, assess pharmacodynamic effects of TAK-931 by measuring basal and postdose levels of skin phosphorylated MCM2 (pMCM2; a CDC7 substrate), and assess preliminary clinical activity of TAK-931. An exploratory objective was to assess the pharmacodynamic effect of TAK-931 in fresh tumor biopsies after multiple doses of TAK-931 that were considered to have biological effect.
as §1, §2

## Cc1[nH]ncc1-c1cc2nc([C@@H]3CC4CCN3CC4)[nH]c(=O)c2s1 [TAK-931, simurosertib]
[1]; 120 and 150 mg
  Accumulation following higher doses: minor accumulation
[1]; estimated amount excreted in urine, n = 79
  Renal clearance (CLr) as share of total apparent clearance: approximately 8%
[1]; 50 mg, oral administration of 50 mg, read-out: Terminal half-life (converted)
  half-life: ~5 h
[1]; oral administration, read-out: Estimated T1/2
  half-life: 5 to 6 h
[1]; oral administration, read-out: Mean half-life (T1/2)
  half-life: 4.58 to 6.53 h
[1]; 50 mg dose, read-out: Tmax
  Tmax: ~2 h
[1]; postdose, over the dose range of 20–50 mg, read-out: Median time to maximum plasma concentration (Tmax)
  Tmax: 1 to 4 h
[1]; multiple dosing
  Systemic exposures between day 1 and days 7, 8, or 9: mostly unchanged
[1]; single- and multiple-dose administration over 20–50 mg
  Plasma exposure vs dose: approximately dose proportional
[1]; single- and multiple-dose administration over the range 20–150 mg
  Systemic exposure vs dose (dose-normalized AUC24): approximately dose proportional
[2]; Schedule A (30 mg), n = 3, baseline mean H-score 18.47 (8.45)
  Skin pMCM2 Mean H-score (StDev), Cycle 1, day 8: 10.93 (6.57)
[2]; Schedule A (30 mg), n = 3, cycle 1, day 8
  % of pMCM2 inhibition (Change from baseline), skin: 40.8%
[2]; Schedule A (40 mg), n = 3, baseline mean H-score 19.53 (3.78)
  Skin pMCM2 Mean H-score (StDev), Cycle 1, day 8: 12.87 (12.19)
[2]; Schedule A (40 mg), n = 3, cycle 1, day 8
  % of pMCM2 inhibition (Change from baseline), skin: 34.1%
[2]; Schedule A (50 mg), n = 14, baseline mean H-score 10.50 (5.85)
  Skin pMCM2 Mean H-score (StDev), Cycle 1, day 8: 3.76 (5.42)
[2]; Schedule A (50 mg), n = 14, cycle 1, day 8
  % of pMCM2 inhibition (Change from baseline), skin: 64.2%
[2]; Schedule A (60 mg), n = 3, baseline mean H-score 10.93 (1.94)
  Skin pMCM2 Mean H-score (StDev), Cycle 1, day 8: 1.00 (0.60)
[2]; Schedule A (60 mg), n = 3, cycle 1, day 8
  % of pMCM2 inhibition (Change from baseline), skin: 90.9%
[2]; Schedule B (60 mg), n = 3, baseline mean H-score 4.40 (2.96)
  Skin pMCM2 Mean H-score (StDev), Cycle 1, day 8: 0.67 (0.46)
[2]; Schedule B (80 mg), n = 9, baseline mean H-score 12.72 (2.02)
  Skin pMCM2 Mean H-score (StDev), Cycle 1, day 8: 3.54 (6.19)
[2]; Schedule B (80 mg), n = 9, cycle 1, day 8
  % of pMCM2 inhibition (Change from baseline), skin: 72.2%
[2]; Schedule D (20 mg), baseline n = 6, cycle 1, day 8 n = 4
  % of pMCM2 inhibition (Change from baseline), skin: 77.1%
[2]; Schedule D (20 mg), baseline n = 6, cycle 1, day 8 n = 4, baseline mean H-score 22.05 (24.52)
  Skin pMCM2 Mean H-score (StDev), Cycle 1, day 8: 5.05 (2.90)
[2]; Schedule D (30 mg), n = 6, baseline mean H-score 33.32 (23.43)
  Skin pMCM2 Mean H-score (StDev), Cycle 1, day 8: 6.43 (5.17)
[2]; Schedule D (30 mg), n = 6, cycle 1, day 8
  % of pMCM2 inhibition (Change from baseline), skin: 80.7%

Source: paper PMC10035389, “Safety, Tolerability, and Pharmacokinetics of TAK-931, a Cell Division Cycle 7 Inhibitor, in Patients with Advanced Solid Tumors: A Phase I First-in-Human Study” (Cancer Research Communications, 2022)
